Measured values from article PMC7127794 (Bioorganic & Medicinal Chemistry Letters, 2015).

How the values were obtained:
[1] = tested on: influenza virus A/H1N1/pdm09; assay type: cell-based, influenza virus A/California/07/09/H1N1/pdm09
MDCK cells = conditions: dog

Row | Molecule | anti-viral activity (in words) [1] | CD50 (MDCK cells) [µM] | further results
1 | 18α-GL [Compound 15] | week anti-viral activity |  | EC50 [1]: 15.2 µM; SI [1]: 3; more toxic to cells than natural glycoside 1 (MDCK cells): 7.7 times
2 | CC1(C)[C@@H](O[C@H]2O[C@H](C(=O)O)[C@@H](O)[C@H](O)[C@H]2O[C@@H]2O[C@H](C(=O)O)[C@@H](O)[C@H](O)[C@H]2O)CC[C@]2(C)[C@H]3C(=O)C=C4[C@@H]5C[C@@](C)(C(=O)O)CC[C@]5(C)CC[C@@]4(C)[C@]3(C)CC[C@@H]12 [Compound 1, Glycyrrhizic acid] | did not show anti-viral activity | 364.6 | 
3 | COC(=O)[C@H](Cc1ccccc1)NC(=O)[C@H]1O[C@@H](O[C@H]2[C@H](O[C@H]3CC[C@]4(C)[C@H]5C(=O)C=C6[C@@H]7C[C@@](C)(C(=O)O)CC[C@]7(C)CC[C@@]6(C)[C@]5(C)CC[C@H]4C3(C)C)O[C@H](C(=O)N[C@@H](Cc3ccccc3)C(=O)OC)[C@@H](O)[C@@H]2O)[C@H](O)[C@@H](O)[C@@H]1O [Compound 5] |  |  | more wide SI values than Rimantadine [1]: 12.2 times
4 | COC(=O)C[C@H](NC(=O)[C@H]1O[C@@H](O[C@H]2[C@H](O[C@H]3CC[C@]4(C)[C@H]5C(=O)C=C6[C@@H]7C[C@@](C)(C(=O)O)CC[C@]7(C)CC[C@@]6(C)[C@]5(C)CC[C@H]4C3(C)C)O[C@H](C(=O)N[C@@H](CC(=O)OC)C(=O)OC)[C@@H](O)[C@@H]2O)[C@H](O)[C@@H](O)[C@@H]1O)C(=O)OC [Compound 9] | does not confer virus-inhibiting properties | 37.3 | 
5 | CC1(C)[C@@H](O[C@@H]2O[C@H](C(=O)N[C@@H](CSCc3ccccc3)C(=O)O)[C@@H](O)[C@H](O)[C@H]2O[C@@H]2O[C@H](C(=O)N[C@@H](CSCc3ccccc3)C(=O)O)[C@@H](O)[C@H](O)[C@H]2O)CC[C@]2(C)[C@H]3C(=O)C=C4[C@@H]5C[C@@](C)(C(=O)O)CC[C@]5(C)CC[C@@]4(C)[C@]3(C)CC[C@@H]12 [Compound 11] |  |  | more wide SI values than Rimantadine [1]: 14.2 times
6 | CC1(C)[C@@H](O[C@@H]2O[C@H](C(=O)N[C@@H](CCCCNC(=O)OCc3ccccc3)C(=O)O)[C@@H](O)[C@H](O)[C@H]2O[C@@H]2O[C@H](C(=O)N[C@@H](CCCCNC(=O)OCc3ccccc3)C(=O)O)[C@@H](O)[C@H](O)[C@H]2O)CC[C@]2(C)[C@H]3C(=O)C=C4[C@@H]5C[C@@](C)(C(=O)O)CC[C@]5(C)CC[C@@]4(C)[C@]3(C)CC[C@@H]12 [Compound 13] | slightly increased antiviral activity |  | 
7 | COC(=O)C[C@H](NC(=O)[C@H]1O[C@@H](O[C@H]2[C@H](O[C@H]3CC[C@]4(C)[C@H]5C(=O)C=C6[C@H]7C[C@@](C)(C(=O)O)CC[C@]7(C)CC[C@@]6(C)[C@]5(C)CC[C@H]4C3(C)C)O[C@H](C(=O)N[C@@H](CC(=O)OC)C(=O)OC)[C@@H](O)[C@@H]2O)[C@H](O)[C@@H](O)[C@@H]1O)C(=O)OC [Compound 16] |  | 38.0 | 
8 | CC1(C)[C@@H](O[C@@H]2O[C@H](C(=O)O)[C@@H](O)[C@H](O)[C@H]2O[C@@H]2O[C@H](C(=O)O)[C@@H](O)[C@H](O)[C@H]2O)CC[C@]2(C)C3=CC=C4[C@@H]5C[C@@](C)(C(=O)O)CC[C@]5(C)CC[C@@]4(C)[C@]3(C)CC[C@@H]12 [Compound 19] | moderate |  | more toxic to cells than natural glycoside 1 (MDCK cells): 17 times
